Legend:
[1] = DRUGMATRIX: Atrial Natriuretic Factor (ANF) radioligand binding (ligand: [125I] ANF (rat)); assay type: cell membranes, Cavia porcellus, Dunkin-Hartley, Adrenal gland, Membrane; settings: Not Active = under 50% inhibition at 10 µM
[2] = DRUGMATRIX: Serotonin (5-Hydroxytryptamine) 5-HT3 radioligand binding (ligand: [3H] GR-65630); assay type: cell membranes, Membrane; settings: hek293, Not Active = under 50% inhibition at 10 µM
[3] = target: T1, C-X-C chemokine receptor type 2 (Homo sapiens, UniProt P25025); assay type: cell membranes, Membrane; settings: cho-k1; note: in other assays of this panel Not Active means under 50% inhibition at 10 µM
T1 sequence (P25025 whole entry): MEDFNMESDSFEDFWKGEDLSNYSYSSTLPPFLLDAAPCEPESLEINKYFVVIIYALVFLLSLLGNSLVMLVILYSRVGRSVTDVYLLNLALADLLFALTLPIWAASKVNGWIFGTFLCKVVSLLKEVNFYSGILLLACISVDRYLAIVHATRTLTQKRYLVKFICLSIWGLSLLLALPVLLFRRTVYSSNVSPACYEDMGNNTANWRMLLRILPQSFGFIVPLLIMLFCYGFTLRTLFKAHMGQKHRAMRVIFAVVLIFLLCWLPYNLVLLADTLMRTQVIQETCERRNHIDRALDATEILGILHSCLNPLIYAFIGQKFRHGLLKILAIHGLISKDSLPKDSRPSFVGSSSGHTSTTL

[4] = DRUGMATRIX: GABAA, Chloride Channel, TBOB radioligand binding (ligand: [3H] TBOB); assay type: cell membranes, Rattus norvegicus, Wistar, Cerebral cortex, Membrane; settings: Not Active = under 50% inhibition at 10 µM
Melanocortin receptor 3 = Melanocortin receptor 3 (Homo sapiens, UniProt P41968); assay type: cell membranes, Membrane; settings: hek293; note: in other assays of this panel Not Active means under 50% inhibition at 10 µM
[5] = target: Delta-type opioid receptor (Homo sapiens, UniProt P41143); assay type: cell membranes, HEK293, Membrane; settings: hek293; note: in other assays of this panel Not Active means under 50% inhibition at 10 µM
[6] = target: cGMP-specific 3',5'-cyclic phosphodiesterase (Homo sapiens, UniProt O76074); test: DRUGMATRIX: Phosphodiesterase PDE5 enzyme inhibition (substrate: [3H]cGMP + cGMP); assay type: tissue-based; settings: platelet; Not Active = under 50% inhibition at 10 µM
Progesterone receptor = target: T2, Progesterone receptor (Bos taurus, UniProt Q690N0); test: DRUGMATRIX: Progesterone radioligand binding (ligand: [3H] R-5020); assay type: tissue-based, Uterus; settings: Not Active = under 50% inhibition at 10 µM; for Ki: read-out: Ki
T2 sequence (Q690N0 whole entry): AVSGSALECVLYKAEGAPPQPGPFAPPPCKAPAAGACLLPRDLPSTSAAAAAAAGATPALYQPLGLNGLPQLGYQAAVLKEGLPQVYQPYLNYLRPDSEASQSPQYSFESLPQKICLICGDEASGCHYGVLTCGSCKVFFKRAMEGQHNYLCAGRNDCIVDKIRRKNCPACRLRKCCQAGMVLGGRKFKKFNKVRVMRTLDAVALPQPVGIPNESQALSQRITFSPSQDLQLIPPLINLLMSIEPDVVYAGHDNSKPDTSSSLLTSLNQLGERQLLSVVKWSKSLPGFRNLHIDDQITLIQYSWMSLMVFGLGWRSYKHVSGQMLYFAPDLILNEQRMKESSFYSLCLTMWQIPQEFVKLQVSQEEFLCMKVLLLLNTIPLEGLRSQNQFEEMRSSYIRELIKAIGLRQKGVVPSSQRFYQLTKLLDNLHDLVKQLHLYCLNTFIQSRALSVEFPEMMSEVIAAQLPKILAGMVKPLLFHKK

Chain of Delta-type opioid receptor (P41143 whole entry): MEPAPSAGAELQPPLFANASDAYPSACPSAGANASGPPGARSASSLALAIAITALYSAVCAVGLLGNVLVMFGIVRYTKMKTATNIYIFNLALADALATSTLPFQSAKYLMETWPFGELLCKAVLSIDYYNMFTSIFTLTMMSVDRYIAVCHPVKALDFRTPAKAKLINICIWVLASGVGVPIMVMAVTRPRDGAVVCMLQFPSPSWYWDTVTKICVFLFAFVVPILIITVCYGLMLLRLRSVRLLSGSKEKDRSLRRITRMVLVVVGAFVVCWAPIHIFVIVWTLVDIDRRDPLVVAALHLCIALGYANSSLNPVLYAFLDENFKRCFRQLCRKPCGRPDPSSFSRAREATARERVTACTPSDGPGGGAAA
Chain of Melanocortin receptor 3 (P41968 whole entry): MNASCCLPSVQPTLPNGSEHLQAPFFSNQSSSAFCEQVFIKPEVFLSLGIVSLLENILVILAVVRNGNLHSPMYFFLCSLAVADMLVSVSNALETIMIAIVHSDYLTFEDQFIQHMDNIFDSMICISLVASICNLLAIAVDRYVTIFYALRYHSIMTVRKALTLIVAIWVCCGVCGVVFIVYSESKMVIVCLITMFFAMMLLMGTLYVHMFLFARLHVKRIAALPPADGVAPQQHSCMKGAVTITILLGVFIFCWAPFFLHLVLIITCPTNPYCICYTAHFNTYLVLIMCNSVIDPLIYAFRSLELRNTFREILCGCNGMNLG

For `O=C(N[C@H](CO)[C@H](O)c1ccc([N+](=O)[O-])cc1)C(Cl)Cl` [CHLORAMPHENICOL], the IC50 [1] was “Not Active”, the Ki [1] was “Not Active” and the IC50 [2] was “Not Active”. For the same compound, the Ki [2] was “Not Active”, the IC50 [3] was “Not Active” and the IC50 [4] was “Not Active”. For the same compound, the Ki [4] was “Not Active”, the IC50 (Melanocortin receptor 3) was “Not Active” and the IC50 [5] was “Not Active”. The IC50 [6] was “Not Active” and the IC50 (Progesterone receptor) was “Not Active”.

With `Cn1c(=O)c2c(ncn2CC2OCCO2)n(C)c1=O` [DOXOFYLLINE] the IC50 [1] was “Not Active”, the Ki [1] was “Not Active” and the IC50 [2] was “Not Active”. The Ki [2] was “Not Active”, the IC50 [3] was “Not Active” and the IC50 [4] was “Not Active”. The Ki [4] was “Not Active”, the IC50 (Melanocortin receptor 3) was “Not Active” and the IC50 [5] was “Not Active”. The IC50 [6] was “Not Active” and the IC50 (Progesterone receptor) was “Not Active”.

In the case of `CCC1=C[C@@H]2CN(C1)Cc1c([nH]c3ccccc13)[C@@](C(=O)OC)(c1cc3c(cc1OC)N(C)[C@H]1[C@@](O)(C(=O)OC)[C@H](OC(C)=O)[C@]4(CC)C=CCN5CC[C@]31[C@@H]54)C2` [VINORELBINE], the IC50 [1] is reported as “Not Active”, the Ki [1] is reported as “Not Active” and the IC50 [2] is reported as “Not Active”. The Ki [2] was “Not Active”, the IC50 [3] was “Not Active” and the IC50 [4] was “Not Active”. For the same compound, the Ki [4] was “Not Active”, the IC50 (Melanocortin receptor 3) was “Not Active” and the IC50 [5] was “Not Active”. The IC50 [6] was “Not Active” and the IC50 (Progesterone receptor) was “Not Active”.

With `CC(C(=O)O)c1cccc(C(=O)c2ccccc2)c1` (configuration not stated) [KETOPROFEN] the IC50 [1] was “Not Active”, the Ki [1] was “Not Active” and the IC50 [2] was “Not Active”. For the same compound, the Ki [2] was “Not Active”, the IC50 [3] was “Not Active” and the IC50 [4] was “Not Active”. For the same compound, the Ki [4] was “Not Active”, the IC50 (Melanocortin receptor 3) was “Not Active” and the IC50 [5] was “Not Active”. The IC50 [6] was “Not Active” and the IC50 (Progesterone receptor) was “Not Active”.

With `O=c1ccc2ccccc2o1` [COUMARIN] the IC50 [1] was “Not Active”, the Ki [1] was “Not Active” and the IC50 [2] was “Not Active”. For the same compound, the Ki [2] was “Not Active”, the IC50 [3] was “Not Active” and the IC50 [4] was “Not Active”. For the same compound, the Ki [4] was “Not Active”, the IC50 (Melanocortin receptor 3) was “Not Active” and the IC50 [5] was “Not Active”. For the same compound, the IC50 [6] was “Not Active” and the IC50 (Progesterone receptor) was “Not Active”.

With `CC1(C)O[C@@H]2C[C@H]3[C@@H]4C[C@H](F)C5=CC(=O)C=C[C@]5(C)[C@H]4[C@@H](O)C[C@]3(C)[C@]2(C(=O)CO)O1` [FLUNISOLIDE] the IC50 [1] was “Not Active”, the Ki [1] was “Not Active” and the IC50 [2] was “Not Active”. For the same compound, the Ki [2] was “Not Active”, the IC50 [3] was “Not Active” and the IC50 [4] was “Not Active”. The Ki [4] was “Not Active”, the IC50 (Melanocortin receptor 3) was “Not Active” and the IC50 [5] was “Not Active”. For the same compound, the IC50 [6] was “Not Active”, the IC50 (Progesterone receptor; read-out: IC50) was 359 nM and the Ki (Progesterone receptor) was 47 nM.

For `CC1(C)O[C@@H]2C[C@H]3[C@@H]4C[C@H](F)C5=CC(=O)C=C[C@]5(C)[C@@]4(F)[C@@H](O)C[C@]3(C)[C@]2(C(=O)CO)O1` [FLUOCINOLONE ACETONIDE], the IC50 [1] was “Not Active”, the Ki [1] was “Not Active” and the IC50 [2] was “Not Active”. The Ki [2] was “Not Active”, the IC50 [3] was “Not Active” and the IC50 [4] was “Not Active”. For the same compound, the Ki [4] was “Not Active”, the IC50 (Melanocortin receptor 3) was “Not Active” and the IC50 [5] was “Not Active”. The IC50 [6] was “Not Active”, the IC50 (Progesterone receptor; read-out: IC50) was 26 nM and the Ki (Progesterone receptor) was 3.35 nM.

In the case of `N=C(Nc1ccccc1)Nc1ccccc1`, the IC50 [1] is reported as “Not Active”, the Ki [1] is reported as “Not Active” and the IC50 [2] is reported as “Not Active”. The Ki [2] was “Not Active”, the IC50 [3] was “Not Active” and the IC50 [4] was “Not Active”. The Ki [4] was “Not Active”, the IC50 (Melanocortin receptor 3) was “Not Active” and the IC50 [5] was “Not Active”. For the same compound, the IC50 [6] was “Not Active” and the IC50 (Progesterone receptor) was “Not Active”.

In the case of `CC[C@@H](CO)NCCN[C@@H](CC)CO` [ETHAMBUTOL], the IC50 [1] is reported as “Not Active”, the Ki [1] is reported as “Not Active” and the IC50 [2] is reported as “Not Active”. The Ki [2] was “Not Active”, the IC50 [3] was “Not Active” and the IC50 [4] was “Not Active”. The Ki [4] was “Not Active”, the IC50 (Melanocortin receptor 3) was “Not Active” and the IC50 [5] was “Not Active”. For the same compound, the IC50 [6] was “Not Active” and the IC50 (Progesterone receptor) was “Not Active”.

With `CN1C(=O)COc2c(C(=O)NC3CN4CCC3CC4)cc(Cl)cc21` (configuration not stated) [AZASETRON] the IC50 [1] was “Not Active”, the Ki [1] was “Not Active” and the IC50 ([2]; read-out: IC50) was 13 nM. For the same compound, the Ki ([2]; read-out: Ki) was 2.89 nM, the IC50 [3] was “Not Active” and the IC50 [4] was “Not Active”. The Ki [4] was “Not Active”, the IC50 (Melanocortin receptor 3) was “Not Active” and the IC50 [5] was “Not Active”. For the same compound, the IC50 [6] was “Not Active” and the IC50 (Progesterone receptor) was “Not Active”.

— ChEMBL document CHEMBL1909046, “DrugMatrix in vitro pharmacology data”
